Measured values as given in patent US20230404914A1 (priority 2020, published 2023).

What was measured:
[1] = Clinical study: pharmacokinetic model (NONMEM), Tmax, AUC, oral bioavailability
[2] = Clinical study: plasma concentrations after OTF administration; details: for plasma level following OTF compared to intravenous administration of 20 mg (S)-ketamine / Cmax: human; for plasma level following OTF compared to intravenous administration of 20 mg (S)-ketamine: in vivo; for Cmax: plasma, Cmax plasma concentration
[3] = averaged; cited from earlier work
[4] = Clinical study: safety, compatibility, adverse events
[5] = 50 mg (S)-Ketamine OTF, calculated using PK model
[6] = 100 mg (S)-Ketamine OTF, calculated using PK model
[7] = All data, 50 mg OTF based on formulation 15
[8] = All data, 2 × 50 mg OTF based on formulation 15
[9] = Buccally, 50 mg OTF based on formulation 15
[10] = Buccally, 2 × 50 mg OTF based on formulation 15
[11] = Sublingually, 50 mg OTF based on formulation 15
[12] = Sublingually, 2 × 50 mg OTF based on formulation 15
[13] = human, plasma, other: sublingual or buccal, 50 mg
[14] = human, plasma, other: sublingual or buccal, 100 mg

N[C@]1(c2ccccc2Cl)CCC[C@H](O)C1=O [(S)-Hydroxynorketamine]
Tmax [1, 5]: 81 (69-92) min
Tmax [1, 6]: 109 (89-130) min
Cmax plasma concentration [2, 7]: 94 ng/mL
Cmax plasma concentration [2, 8]: 171 ng/mL
Cmax plasma concentration [2, 9]: 81 ng/mL
Cmax plasma concentration [2, 10]: 165 ng/mL
Cmax plasma concentration [2, 11]: 98 ng/mL
Cmax plasma concentration [2, 12]: 173 ng/mL
plasma level following OTF compared to intravenous administration of 20 mg (S)-ketamine [2]: higher following administration of an OTF

N[C@]1(c2ccccc2Cl)CCCCC1=O [(S)-Norketamine]
Tmax [1, 5]: 61 (53-68) min
Tmax [1, 6]: 78 (66-91) min
Cmax plasma concentration [2, 7]: 254 ng/mL
Cmax plasma concentration [2, 8]: 330 ng/mL
Cmax plasma concentration [2, 9]: 242 ng/mL
Cmax plasma concentration [2, 10]: 450 ng/mL
Cmax plasma concentration [2, 11]: 258 ng/mL
Cmax plasma concentration [2, 12]: 323 ng/mL
plasma level following OTF compared to intravenous administration of 20 mg (S)-ketamine [2]: higher following administration of an OTF

CNC1(c2ccccc2Cl)CCCCC1=O (racemic) [(S)-ketamine, (S)-(±)-2-(2-chlorophenyl)-2-(methylamino)cyclohexan-1-one]
lethal dose [3]: 4.2 g/70 kg
AUC(0-t) [1, 13]: 139 ng·h/mL
Tmax [1, 13]: 18.8 min
AUC(0-t) [1, 14]: 222 ng·h/mL
Tmax [1, 14]: 19.1 min
Dizziness (prevalence of events) ([4]; 20 mg (S)-ketamine IV): 4
Drowsiness (prevalence of events) ([4]; 20 mg (S)-ketamine IV): 3
Dry eyes (prevalence of events) ([4]; 20 mg (S)-ketamine IV): 1
Headache (prevalence of events) ([4]; 20 mg (S)-ketamine IV): 3
High blood pressure (SBP >180 mm Hg) (prevalence of events) ([4]; 20 mg (S)-ketamine IV): 2
Nausea (prevalence of events) ([4]; 20 mg (S)-ketamine IV): 2
Sweating (prevalence of events) ([4]; 20 mg (S)-ketamine IV): 1
Total side effects (prevalence of events) ([4]; 20 mg (S)-ketamine IV): 17
Whistling noise in the ear (prevalence of events) ([4]; 20 mg (S)-ketamine IV): 1
Blurred vision (prevalence of events) ([4]; 50 mg (S)-ketamine OTF): 1
Bradykinesia (prevalence of events) ([4]; 50 mg (S)-ketamine OTF): 1
Dizziness (prevalence of events) ([4]; 50 mg (S)-ketamine OTF): 1
Feeling of drunkenness (prevalence of events) ([4]; 50 mg (S)-ketamine OTF): 2
Headache (prevalence of events) ([4]; 50 mg (S)-ketamine OTF): 1
Nausea (prevalence of events) ([4]; 50 mg (S)-ketamine OTF): 1
Total side effects (prevalence of events) ([4]; 50 mg (S)-ketamine OTF): 7
Bradykinesia (prevalence of events) ([4]; 100 mg (S)-ketamine OTF): 1
Dizziness (prevalence of events) ([4]; 100 mg (S)-ketamine OTF): 3
Headache (prevalence of events) ([4]; 100 mg (S)-ketamine OTF): 2
Nausea (prevalence of events) ([4]; 100 mg (S)-ketamine OTF): 1
Numbness of the tongue (prevalence of events) ([4]; 100 mg (S)-ketamine OTF): 2
Total side effects (prevalence of events) ([4]; 100 mg (S)-ketamine OTF): 9
adverse events in total ([4]; whole study, OTF and IV): 33
serious adverse events ([4]; whole study, OTF and IV): None of these was a serious adverse event
test subjects reporting at least one adverse event ([4]; whole study, OTF and IV): 18
plasma level following OTF compared to intravenous administration of 20 mg (S)-ketamine [2]: higher for intravenous administration
Cmax ([2]; 50 mg, Buccally, 50 mg OTF based on formulation 15): 117 ng/mL
Cmax ([2]; 50 mg, Sublingually, 50 mg OTF based on formulation 15): 95 ng/mL
Cmax ([2]; 100 mg, Buccally, 2 × 50 mg OTF based on formulation 15): 158 ng/mL
Cmax ([2]; 100 mg, Sublingually, 2 × 50 mg OTF based on formulation 15): 138 ng/mL
Cmax ([2]; other: sublingual or buccal (all data), 50 mg, All data, 50 mg OTF based on formulation 15): 101 ng/mL
Cmax ([2]; other: sublingual or buccal (all data), 100 mg, All data, 2 × 50 mg OTF based on formulation 15): 143 ng/mL
